Legend:
[1] = Absorption of M4N in beagle dogs upon oral administration of solid formulations in capsules, serum LC/MS/MS; assay type: in vivo; conditions: oral single 100 mg/kg
Protocol: Five groups of dogs (n=2 per group, one male and one female) (age=approximately 6-9 months old) were exposed to a single 100 mg/kg dose of M4N in excipient to determine the optimal oral solid excipient. The composition of M4N in excipient was encapsulated in size 12 hard gelatin capsules prior to oral administration. The animals were fasted overnight prior to dosing. The excipients/formulations tested are set forth in Table 19 and were: (a) no excipient, where M4N was encapsulated; (b) HP-β-CD; (c) TPGS; (d) soybean oil+beeswax; and (e) olive oil+beeswax. Blood was collected from each animal via the jugular vein at the following time points: predose, 0.5 hr, 1 hr, 1.5 hr, 2 hr, 4 hr, 6 hr and 8 hr post dosing. Concentrations of M4N in serum were determined by Liquid Chromatography combined with tandem Mass Spectroscopy (LC/MS/MS).

[2] = M4N stability in HP-β-CD/PEG 300 buffer solutions at 60° C., RP-HPLC and pH; assay type: physicochemical; conditions: for M4N stability: M4N: 25% PEG300
Protocol: The stability of 10 mg/mL M4N (prepared in a ratio of 75:25 40% HP-β-CD: 40 mg/mL M4N PEG 300) in 15 mM buffer solutions was evaluated following incubation at 60° C.
2.0 g HP-β-CD was weighed into 5 mL volumetric flasks on an OHAUS Analytical Plus Balance. 1 mL of a 100 mM buffer solution was added to each flask. Each sample was q.s. to 5 mL with WFI.
750 μL 40% HP-β-CD buffered solution was placed in 1.5 mL polypropylene microtubes. […] After gentle inversion of the sample tubes, the pH of each solution was measured using a Orion, Model 420A pH meter. An initial aliquot was removed for RP-HPLC analysis. Test samples were then placed in a Precision 60° C. incubator. The M4N stability was evaluated by RP-HPLC. At each time point, the samples were centrifuged for 2 minutes at 13,000 rpm to pellet any solid M4N.

[3] = 40 mg/mL M4N/PEG 300 stability, visual appearance; assay type: physicochemical; conditions: for Visual Appearance: 40 mg/mL M4N/PEG 300
Protocol: The stability of 40 mg/mL M4N dissolved in 100% PEG 300 was evaluated up to 24 hours incubation at 30° C., 45° C. and 60° C. A stock 40 mg/mL M4N in PEG 300 was prepared at 60° C., following the procedure set forth in Example 18. Subsequently, aliquots were removed and incubated at the appropriate temperature. Samples were rotated at 450 rpm during the entire course of incubation. Visual observations and RP-HPLC data were collected throughout. […] The formation of crystals coincided with a loss of soluble M4N (Table 30). The 40 mg/mL M4N/PEG 300 samples incubated at 45° C. and 60° C. were stable after 24 hours incubation as assessed by visual observations and RP-HPLC analysis (Tables 29 and 30).

COc1ccc(C[C@@H](C)[C@@H](C)Cc2ccc(OC)c(OC)c2)cc1OC [Formulation M4N, meso-1,4-bis(3,4-dimethoxyphenyl)-2,3-dimethylbutane]
Absorption, ranking between formulations ([1]; Lyophilized HP-β-CD (81%)+M4N (185 mg/g)): higher than that containing TPGS | Absorption, ranking between formulations ([1]; TPGS (20%)+M4N (133 mg/g)): higher than that containing soybean oil+beeswax | Absorption, ranking between formulations ([1]; olive oil (95%)+beeswax (5%)+M4N (200 mg/g)): highest | Absorption, ranking between formulations ([1]; soybean oil (95%)+beeswax (5%)+M4N (200 mg/g)): higher than M4N without an excipient | change in M4N concentration ([2]; 10 mg/mL M4N in HP-β-CD/PEG 300 buffer solutions, 14 day incubation at 60° C.): slight decrease | M4N stability: M4N ([2]; 15 mM Acetate, pH 5 30% HP-β-CD, 60° C., 0 days): 10.6 mg/mL | M4N stability: M4N ([2]; 15 mM Acetate, pH 5 30% HP-β-CD, 60° C., 2 days): 10.2 mg/mL | M4N stability: M4N ([2]; 15 mM Acetate, pH 5 30% HP-β-CD, 60° C., 6 days): 9.6 mg/mL | M4N stability: M4N ([2]; 15 mM Acetate, pH 5 30% HP-β-CD, 60° C., 10 days): 9.7 mg/mL | M4N stability: M4N ([2]; 15 mM Acetate, pH 5 30% HP-β-CD, 60° C., 14 days): 9.6 mg/mL | M4N stability: M4N ([2]; 15 mM Acetate, pH 6 30% HP-β-CD, 60° C., 0 days): 10.5 mg/mL | M4N stability: M4N ([2]; 15 mM Acetate, pH 6 30% HP-β-CD, 60° C., 2 days): 10.1 mg/mL | M4N stability: M4N ([2]; 15 mM Acetate, pH 6 30% HP-β-CD, 60° C., 6 days): 9.7 mg/mL | M4N stability: M4N ([2]; 15 mM Acetate, pH 6 30% HP-β-CD, 60° C., 10 days): 9.7 mg/mL | M4N stability: M4N ([2]; 15 mM Acetate, pH 6 30% HP-β-CD, 60° C., 14 days): 9.6 mg/mL | M4N stability: M4N ([2]; 15 mM Borate, pH 10 30% HP-β-CD, 60° C., 0 days): 10.5 mg/mL | M4N stability: M4N ([2]; 15 mM Borate, pH 10 30% HP-β-CD, 60° C., 2 days): 10.1 mg/mL | M4N stability: M4N ([2]; 15 mM Borate, pH 10 30% HP-β-CD, 60° C., 6 days): 9.7 mg/mL | M4N stability: M4N ([2]; 15 mM Borate, pH 10 30% HP-β-CD, 60° C., 10 days): 9.6 mg/mL | M4N stability: M4N ([2]; 15 mM Borate, pH 10 30% HP-β-CD, 60° C., 14 days): 9.6 mg/mL | M4N stability: M4N ([2]; 15 mM Borate, pH 11 30% HP-β-CD, 60° C., 0 days): 10.5 mg/mL | M4N stability: M4N ([2]; 15 mM Borate, pH 11 30% HP-β-CD, 60° C., 2 days): 10.3 mg/mL | M4N stability: M4N ([2]; 15 mM Borate, pH 11 30% HP-β-CD, 60° C., 6 days): 9.8 mg/mL | M4N stability: M4N ([2]; 15 mM Borate, pH 11 30% HP-β-CD, 60° C., 10 days): 9.5 mg/mL | M4N stability: M4N ([2]; 15 mM Borate, pH 11 30% HP-β-CD, 60° C., 14 days): 9.4 mg/mL | M4N stability: M4N ([2]; 15 mM Phosphate, pH 3 30% HP-β-CD, 60° C., 0 days): 10.3 mg/mL | M4N stability: M4N ([2]; 15 mM Phosphate, pH 3 30% HP-β-CD, 60° C., 2 days): 10.1 mg/mL | M4N stability: M4N ([2]; 15 mM Phosphate, pH 3 30% HP-β-CD, 60° C., 6 days): 9.6 mg/mL | M4N stability: M4N ([2]; 15 mM Phosphate, pH 3 30% HP-β-CD, 60° C., 10 days): 9.7 mg/mL | M4N stability: M4N ([2]; 15 mM Phosphate, pH 3 30% HP-β-CD, 60° C., 14 days): 9.6 mg/mL | M4N stability: M4N ([2]; 15 mM Phosphate, pH 4 30% HP-β-CD, 60° C., 0 days): 10.5 mg/mL | M4N stability: M4N ([2]; 15 mM Phosphate, pH 4 30% HP-β-CD, 60° C., 2 days): 10.1 mg/mL | M4N stability: M4N ([2]; 15 mM Phosphate, pH 4 30% HP-β-CD, 60° C., 6 days): 9.6 mg/mL | M4N stability: M4N ([2]; 15 mM Phosphate, pH 4 30% HP-β-CD, 60° C., 10 days): 9.7 mg/mL | M4N stability: M4N ([2]; 15 mM Phosphate, pH 4 30% HP-β-CD, 60° C., 14 days): 9.6 mg/mL | M4N stability: M4N ([2]; 15 mM Phosphate, pH 7 30% HP-β-CD, 60° C., 0 days): 10.5 mg/mL | M4N stability: M4N ([2]; 15 mM Phosphate, pH 7 30% HP-β-CD, 60° C., 2 days): 10.3 mg/mL | M4N stability: M4N ([2]; 15 mM Phosphate, pH 7 30% HP-β-CD, 60° C., 6 days): 9.7 mg/mL | M4N stability: M4N ([2]; 15 mM Phosphate, pH 7 30% HP-β-CD, 60° C., 10 days): 9.7 mg/mL | M4N stability: M4N ([2]; 15 mM Phosphate, pH 7 30% HP-β-CD, 60° C., 14 days): 9.7 mg/mL | M4N stability: M4N ([2]; 15 mM Phosphate, pH 8 30% HP-β-CD, 60° C., 0 days): 10.6 mg/mL | M4N stability: M4N ([2]; 15 mM Phosphate, pH 8 30% HP-β-CD, 60° C., 2 days): 10.4 mg/mL | M4N stability: M4N ([2]; 15 mM Phosphate, pH 8 30% HP-β-CD, 60° C., 6 days): 9.7 mg/mL | M4N stability: M4N ([2]; 15 mM Phosphate, pH 8 30% HP-β-CD, 60° C., 10 days): 9.8 mg/mL | M4N stability: M4N ([2]; 15 mM Phosphate, pH 8 30% HP-β-CD, 60° C., 14 days): 9.6 mg/mL | M4N stability: M4N ([2]; 15 mM Phosphate, pH 9 30% HP-β-CD, 60° C., 0 days): 10.4 mg/mL | M4N stability: M4N ([2]; 15 mM Phosphate, pH 9 30% HP-β-CD, 60° C., 2 days): 10.2 mg/mL | M4N stability: M4N ([2]; 15 mM Phosphate, pH 9 30% HP-β-CD, 60° C., 6 days): 9.7 mg/mL | M4N stability: M4N ([2]; 15 mM Phosphate, pH 9 30% HP-β-CD, 60° C., 10 days): 9.8 mg/mL | M4N stability: M4N ([2]; 15 mM Phosphate, pH 9 30% HP-β-CD, 60° C., 14 days): 9.7 mg/mL | M4N impurities, share of the total peak area ([2]; HP-β-CD/PEG 300 buffer solutions, 60° C.): less than 0.1% | M4N stability: M4N ([2]; WFI, 30% HP-β-CD, 60° C., 0 days): 10.4 mg/mL | M4N stability: M4N ([2]; WFI, 30% HP-β-CD, 60° C., 6 days): 9.9 mg/mL | M4N stability: M4N ([2]; WFI, 30% HP-β-CD, 60° C., 10 days): 9.7 mg/mL | M4N stability: M4N ([2]; WFI, 30% HP-β-CD, 60° C., 14 days): 9.6 mg/mL | change in apparent sample pH ([2]; incubation at 60° C. up to 14 days): Little if any changes | visual observation ([3]; 40 mg/mL M4N/PEG 300, 6 hours at 30° C.): tiny crystals | visual observation ([3]; 40 mg/mL M4N/PEG 300, 24 hours at 30° C.): even more crystals | Visual Appearance ([3]; 30° C., 2 hours): Clear | Visual Appearance ([3]; 30° C., 4 hours): Clear | Visual Appearance ([3]; 30° C., 6 hours): Few tiny | Visual Appearance ([3]; 30° C., 24 hours): Many tiny | Visual Appearance ([3]; 45° C., 2 hours): Clear | Visual Appearance ([3]; 45° C., 4 hours): Clear | Visual Appearance ([3]; 45° C., 6 hours): Clear | Visual Appearance ([3]; 45° C., 24 hours): Clear | Visual Appearance ([3]; 60° C., 2 hours): Clear | Visual Appearance ([3]; 60° C., 4 hours): Clear | Visual Appearance ([3]; 60° C., 6 hours): Clear | Visual Appearance ([3]; 60° C., 24 hours): Clear

Reference: patent US20090022803A1, “Oral Formulations For Delivery of Catecholic Butanes Including Ndga Compounds” (priority 2005, published 2009)
